Measured values: US9145444B2, “Compounds and methods associated with differential methylation of human papilloma virus genomes in epithelial cells” (Ruprecht-Karls-Universität Heidelberg, priority 2007, dated 2015)

Tests used:
[1] = phase I and II trials, systemic therapy; cited from earlier work
early p97 HPV16 promoter = experiment: luciferase assay of p97 promoter activity in keratinocytes transfected with LCR16_Luc; assay type: cell-based, human
Protocol: The impact of treatment with epigenetic inhibitors (demethylation agents) on the activity of the p97 promoter is assessed using luciferase assay. Normal human keratinocytes transfected with the reporter plasmid LCR16_Luc, which contains the complete LCR fragment of the HPV-16 cloned in front of the luciferase gene were grown to about 50-60% confluence. Cells were treated with 2 μM and 4 μM 5-azacytidin for 24 and 72 hs.

normal human firoblasts = details: normal human fibroblasts; cited from earlier work

SMILES | dose-limiting toxicity [1] | most commonly reported non-hematologic adverse effect [1] | p97 promoter activity reduced to (early p97 HPV16 promoter; 2 μM, undifferentiated or differentiated cells, FIG. 9) | p97 promoter activity (early p97 HPV16 promoter; 4 μM, undifferentiated and differentiated cells, FIG. 9) | activity of the early p97 promoter (early p97 HPV16 promoter; normal human keratinocytes, LCR16_Luc reporter, 2 μM and 4 μM for 24 and 72 hs) | basal level and TGFβ-induced collagen biosynthesis (normal human firoblasts)
Nc1ncn([C@H]2C[C@H](O)[C@@H](CO)O2)c(=O)n1 [decitabine, 5-Aza-20-deoxycytidine] | myelosuppression | nausea and vomiting |  |  |  | 
Nc1ncn([C@@H]2O[C@H](CO)[C@@H](O)[C@H]2O)c(=O)n1 [5-azacytidine, 5-Azacytidine] | myelosuppression | nausea and vomiting | 40-60% | significantly reduced to the basal level | decreased the activity of the early p97 promoter in a dose dependent manner | inhibits
